Test results: patent US20260373135A1, “Methods of Treatment with Tradipitant” (Vanda Pharmaceuticals Inc., priority 2022, published 2026)

How the values were obtained:
[1] = target: T1, CYP3A4 (Homo sapiens, UniProt P08684); experiment: Co-administration of tradipitant with a CYP3A4 inhibitor; type: in vivo
Experimental: The method may further include administering tradipitant to the individual at a dose that is determined based upon whether or not a CYP3A4 inhibitor is co-administered with the tradipitant. In a case in which a CYP3A4 inhibitor is not being co-administered to the individual, the method includes administering tradipitant to the individual in a first amount, in a manner similar to the above-described case in which the individual has a CYP3A4 genotype associated with normal metabolism of tradipitant. However, in a case in which a CYP3A4 inhibitor is co-administered with tradipitant to the individual, then the method may include administering tradipitant to the individual in a second ament, where the second amount is smaller than the first amount, in a manner similar to the above-described case in which the individual has a CYP3A4 genotype that is associated with decreased metabolism of tradipitant relative to wildtype. In certain embodiments, the CYP3A4 inhibitor may be selected from amiodarone, aprepitant, cimetidine, ciprofloxacin, clarithromycin, diltiazem, erythromycin, fluconazole, grapefruit juice, itraconazole, ketoconazole, posaconazole, voriconazole, and verapamil. In particular embodiments, the CYP3A4 inhibitor may be considered a strong CYP3A4 inhibitor, and may be selected from: clarithromycin, itraconazole, ketoconazole, and posaconazole, or from ketoconazole and grapefruit juice.
As described above, in certain embodiments, the second, smaller amount of tradipitant may be about 60-90%, 60-85%, 60-80%, 60-75%, or 60-70% of the first amount; about 25-70%, 30-70%, 35-70%, 40-70%, 45-70%, 50-70%, 55-70%, or 60-70% of the first amount; about 35-95%, 40-90%, 50-80%, or 60-70% of the first amount; or about 66-68% of the first amount. The first amount is considered to be 100% of the amount that would be administered to an individual who is […] a CYP3A4 inhibitor with the tradipitant.
Therefore, the identification of an individual in need of treatment with tradipitant, who is or would be co-administered tradipitant and the CYP3A4 inhibitor, enables dosing with tradipitant in a manner that facilitates the desired exposure level of the patient to the parent compound and any active metabolites thereof. […]

[2] = target: T1, CYP3A4; experiment: Role of CYP3A4 genotype (CYP3A4*22) in metabolism/clearance of tradipitant, phase III study pharmacokinetics; type: in vivo
Experimental: To investigate the role of CYP3A4 genotypes in the metabolism of tradipitant, pharmacokinetics are analyzed in view of CYP3A4 genotype in a phase III study of humans dosed with tradipitant. In the investigation, all CYP3A4 alleles (as recognized by the Human Cytochrome P450 Allele Nomenclature Database) are reviewed. The analysis includes a linear model that is tested on various ratios of parent compound (tradipitant) or its metabolites, including: • Ratio A=Sum of (M2+M3+M4)/M8, and • Ratio B=(tradipitant)/(M3).
After correction for covariates, including principal components (PCs), age, sex, and body mass index (BMI), CYP3A4*22 is identified as a variant of interest, with a p-value of 1×10^−5. […] The effect of multiple alleles of interest is cumulative, as shown by the median ratios present in individuals having a CYP3A4 genotype of *22/*1, i.e. heterozygous for the *22 variant of interest (*22 het), compared with individuals having a CYP3A4 genotype of *22/*22+*3/*1 genotype, i.e., homozygous for the *22 variant of interest.
The graphs shown in FIGS. 2A-2H illustrate the plasma concentrations of tradipitant (FIG. 2A), metabolite M2 (FIG. 2B), metabolite M3 (FIG. 2C), metabolite M4 (FIG. 2D), metabolite M8 (FIG. 2E), ratio of tradipitant to M8 (FIG. 2F), ratio of all metabolites to M8 (i.e., (M2+M3+M4)/M8) (FIG. 2G), and ratio of tradipitant to M3 (FIG. 2H) in individuals in a study population. […] This reflects the reduced ability to clear tradipitant in individuals having a *22 allele.
The apparent clearance of tradipitant is plotted for individuals having a wild type (WT) genotype as compared to individuals having a heterozygous *22 (*22 het) genotype. The ratio of clearance (CL) in *22 het to WT is calculated as exp (median (HET)-median (WT)). Below these calculations, the P value is reported for a t test comparing the ETA values. […] Post hoc ETAs are the following: log (individual value for clearance/typical value for clearance), where “typical value” is essentially the median value. […]

[3] = Human metabolism of tradipitant in vitro and in vivo
Excerpt: Factors affecting metabolic clearance of tradipitant and its metabolites impact an individual's exposure to the parent compound, as well as any active metabolites.

[4] = co-administration with a CYP3A4 inhibitor

T1 sequence (P08684 whole entry): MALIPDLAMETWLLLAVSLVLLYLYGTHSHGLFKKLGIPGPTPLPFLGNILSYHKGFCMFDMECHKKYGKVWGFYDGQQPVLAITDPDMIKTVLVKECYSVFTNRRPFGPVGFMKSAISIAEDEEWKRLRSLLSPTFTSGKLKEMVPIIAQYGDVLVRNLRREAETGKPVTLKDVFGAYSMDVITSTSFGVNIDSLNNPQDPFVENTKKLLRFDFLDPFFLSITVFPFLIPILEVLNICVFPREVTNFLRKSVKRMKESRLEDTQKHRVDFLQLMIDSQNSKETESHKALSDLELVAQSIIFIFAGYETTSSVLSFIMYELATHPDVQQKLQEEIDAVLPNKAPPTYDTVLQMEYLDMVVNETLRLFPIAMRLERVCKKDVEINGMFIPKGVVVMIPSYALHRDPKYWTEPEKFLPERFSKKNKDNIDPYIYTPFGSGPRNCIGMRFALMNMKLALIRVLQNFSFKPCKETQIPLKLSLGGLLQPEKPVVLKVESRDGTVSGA

exposure to tradipitant with CYP3A4 inhibitors ([1]; co-administration with CYP3A4 inhibitors, particularly strong): increased exposure to tradipitant
decrease in apparent clearance [1, 4]: about 26.3%
increase in AUC [1, 4]: about 36%
increase in Cmax [1, 4]: about 26%
reduction of tradipitant clearance in *22 heterozygotes ([2]; CYP3A4*22 heterozygotes vs wild type): 34%
median plasma concentration in *22 het vs wild type ([2]; CYP3A4*22 heterozygous vs wild type (*1/*1), plasma, FIGS. 2A-2D): clearly greater median concentrations
SMILES: O=C(c1ccccc1Cl)c1cccnc1-c1nnn(Cc2cc(C(F)(F)F)cc(C(F)(F)F)c2)c1-c1ccncc1 [tradipitant, {2-[1-(3,5-Bistrifluoromethylbenzyl)-5-pyridin-4-yl-1H-[1,2,3]triazol-4-yl]-pyridin-3-yl}-(2-chlorophenyl)-methanone]
median ratio of tradipitant to M8 in *22 het vs wild type ([2]; CYP3A4*22 heterozygous vs wild type, plasma, FIG. 2F): clearly greater median ratio of tradipitant to M8
human metabolic pathways [3]: ketone reduction (metabolites M2, M4), N-glucuronidation (metabolite M8), pyridine N-oxidation (metabolites M3, M4), and glucuronidation (metabolite M8)
